Data on 1 molecule can be found in patent publication US20090028925A1, “Novel Phosphinic Acid-Containing Thyromimetics” (priority 2005, published 2009).

Data set [1] concerns the target T1, human thyroid hormone receptors TRβ1 (Homo sapiens, UniProt P10828).
T1 construct: made in house; host or cells: Sf9 insect cells (baculovirus)
T1 sequence (P10828 1-461): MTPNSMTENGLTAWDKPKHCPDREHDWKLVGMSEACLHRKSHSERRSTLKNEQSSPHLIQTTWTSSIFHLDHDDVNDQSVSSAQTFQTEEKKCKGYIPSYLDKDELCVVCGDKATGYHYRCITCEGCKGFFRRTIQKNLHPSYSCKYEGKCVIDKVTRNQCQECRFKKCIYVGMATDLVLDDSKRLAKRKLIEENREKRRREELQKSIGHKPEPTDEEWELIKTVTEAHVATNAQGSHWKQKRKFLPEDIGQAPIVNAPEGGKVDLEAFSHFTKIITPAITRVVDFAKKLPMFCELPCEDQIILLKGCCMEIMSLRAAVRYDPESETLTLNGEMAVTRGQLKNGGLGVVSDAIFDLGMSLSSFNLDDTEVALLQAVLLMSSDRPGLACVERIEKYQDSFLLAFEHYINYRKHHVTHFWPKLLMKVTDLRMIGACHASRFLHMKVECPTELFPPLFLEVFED
T1 sequence (P19793 1-462 partner): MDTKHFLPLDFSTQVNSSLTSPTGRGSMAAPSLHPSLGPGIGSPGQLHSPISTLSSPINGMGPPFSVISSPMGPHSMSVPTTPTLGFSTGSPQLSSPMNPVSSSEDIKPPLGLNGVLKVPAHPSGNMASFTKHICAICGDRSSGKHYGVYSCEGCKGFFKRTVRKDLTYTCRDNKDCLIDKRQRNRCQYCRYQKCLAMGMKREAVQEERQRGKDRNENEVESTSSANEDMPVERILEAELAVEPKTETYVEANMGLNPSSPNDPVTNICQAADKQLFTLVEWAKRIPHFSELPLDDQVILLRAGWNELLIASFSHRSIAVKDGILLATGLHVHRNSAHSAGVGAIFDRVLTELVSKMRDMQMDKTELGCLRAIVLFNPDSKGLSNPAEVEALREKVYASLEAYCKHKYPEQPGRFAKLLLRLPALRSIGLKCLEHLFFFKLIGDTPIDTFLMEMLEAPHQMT
Put plainly: Receptor binding to TRβ1 (gel filtration and scintillation proximity assay, labeled T3). To be noted: SPA data; read-out: Ki TRβ.

The target of data set [2] is T2, human thyroid hormone receptors TRα1 (Homo sapiens, UniProt P10827).
T2 construct: made in house; host or cells: Sf9 insect cells (baculovirus)
T2 sequence (P10827 1-410 isoform P10827-2): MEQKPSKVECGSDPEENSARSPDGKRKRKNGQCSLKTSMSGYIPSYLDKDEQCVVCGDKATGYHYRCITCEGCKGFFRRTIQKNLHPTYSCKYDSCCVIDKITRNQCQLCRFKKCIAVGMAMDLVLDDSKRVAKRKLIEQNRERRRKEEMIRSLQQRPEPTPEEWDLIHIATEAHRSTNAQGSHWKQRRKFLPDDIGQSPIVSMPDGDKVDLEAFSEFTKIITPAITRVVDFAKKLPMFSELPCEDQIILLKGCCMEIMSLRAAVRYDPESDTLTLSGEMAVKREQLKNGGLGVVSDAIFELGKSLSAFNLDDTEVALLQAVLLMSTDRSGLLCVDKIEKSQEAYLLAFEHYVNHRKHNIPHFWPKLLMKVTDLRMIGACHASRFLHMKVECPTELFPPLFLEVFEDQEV
T2 sequence (P19793 1-462 partner): T1 sequence (P19793 1-462 partner)
Put plainly: Receptor binding to TRα1 (gel filtration and scintillation proximity assay, labeled T3). To be noted: SPA data; read-out: Ki TRα. For orientation: SEC sorts molecules by how far they enter the pores of the column.

A short description of data set [3]: Prodrug activation in rat liver microsomes. The data set is classed as in vitro ADME. From the text: (§1) The purpose of these studies was to determine the kinetics of activation of prodrugs of thyromimetics in microsomal preparations. Microsomes contain the P450 enzyme that is required for the activation of many of the prodrugs prepared. The Km, Vmax, and intrinsic clearance values determined are measures of prodrug affinity for the microsomal enzymes, the rate at which the prodrug is activated, and the catalytic efficiency with which the prodrug is activated, respectively.
(§2) Methods: Activation of prodrugs by dexamethasone treated rat hepatocyte microsomes. Microsomes were isolated by standard differential centrifugation methods from dexamethasone-treated rats. The treatment is to increase cytochrome P450-3A (CYP3A4) activity. Induction of CYP3A4 was confirmed by an increase in testosterone hydroxylation.
(§3) Various concentrations of HepDirect™ Compound 7 were incubated with rat hepatocytes microsomes. Compound 7 formation was analyzed by HPLC using UV-Vis detection. Kinetic parameters (Vmax and Km) were calculated from the transformed data and the intrinsic clearance calculated from the kinetic parameters.
On the technique in general: Liver microsomes are vesicles of endoplasmic reticulum, rich in cytochrome P450 enzymes.

Data set [4] has as its system CYP3A (cytochrome P450-3A (CYP3A4)). Put plainly: Prodrug activation in rat liver microsomes. The data set is classed as in vitro ADME. To be noted: liver microsomes from dexamethasone-treated rats; dexamethasone treated rat microsomes, formation of Compound 7.
Excerpt: as §1, §2, §3

In another data set the test system is serum cholesterol. Put plainly: Subacute study in cholesterol fed rats, PO: serum cholesterol. Format: in vivo. To be noted: PO once a day for seven days. The protocol: (§4) Methods: […] Compound 13-1-cis and Compound 18 were administered PO once a day for seven days. Serum TSH is measured using an enzyme immunoassay (EIA) kit designed for rat TSH (Amersham Pharmacia Biotech, Arlington Heights, Ill.). Expression levels of liver genes (e.g., the LDL-receptor, apoB, cpt-1, spot14 and apoAI) and heart genes ([…]2, HCN2, Kv1.5, MHCα, MHCβ, Alpha1c) are quantified by Northern blot analysis or by RT-PCR. For Northern analyses, RNA is isolated from liver tissue by a guanidinium thiocyanate method, and total RNA is obtained using an RNeasy column (Quiagen). mRNA is separated on a 1% agarose gel and transferred to a nylon membrane. Oligonucleotides specific for the complementary gene sequences are used to make ^32P-labeled probes (Multiprime DNA labeling systems, Amersham Pharmacia Biotech). Following hybridization of the probes to the nylon membranes, radioactivity is assessed on a blue film (Eastman Kodak Co), and the resulting image quantified using the appropriate software. RT-PCR is performed using an iCycler instrument (Biorad) using appropriate primers by means of standard methodology [[…] et al. (2000) Life Sciences 66: 1683-94]. GPDH activity in liver and heart are measured as described in Example B. […] Alternatively, expression levels of the corresponding genes are determined by Northern blot analysis or RT-PCR as described above.

Data set [5] in a line: Subacute study in cholesterol fed rats, PO: heart weight. Format: in vivo. To be noted: PO seven days, any dose tested. The procedure:
as §4

In the next data set the test system is plasma cholesterol. Put plainly: Cholesterol lowering in hypercholesterolemic rats. Format: in vivo. To be noted: hypercholesterolemic rats, 0.5 mg/kg/d orally.

Turning to `Cc1cc(OC[P@@]2(=O)OCC[C@@H](c3cccc(Cl)c3)O2)cc(C)c1Cc1ccc(O)c(C(C)C)c1` [Compound 13-1-cis, Cis(S)-2-[(3,5-Dimethyl-4-(4′-hydroxy-3′-iso-propylbenzyl)phenoxy)methyl]-4-(3-Chlorophenyl)-2-oxo-2λ^5-[1,3,2]-dioxaphosphinane], the Ki (as a rule, the dissociation constant of the complex between target and ligand, obtained from inhibition or displacement) in data set [1] amounted to 1980 nM; in data set [2], 2580 nM. The Vmax – broadly, the rate approached at saturating substrate – in data set [3] (dexamethasone treated rat microsomes, formation of Compound 7) stood at 1746 pmol/min/mg. Moreover, the microsomal CLint (in general, the capacity of the preparation to metabolise the compound, expressed as a volume cleared per time) in data set [3] (rat, liver microsomes from dexamethasone-treated rats, intrinsic clearance calculated from the kinetic parameters) was 56 µL/min/mg. The Km (usually the concentration of substrate that gives half-maximal velocity) in data set [4] was 31 µM. Moreover, in the data set with serum cholesterol, the “doses that significantly decreased serum cholesterol” value lay in the range of 0.6 to 50 mg/kg/day. The cardiac hypertrophy entry in data set [5] is given as “No significant undesirable cardiac hypertrophy was observed”. Besides, the cholesterol lowering result in the data set with plasma cholesterol is reported as “demonstrated a significant lowering of cholesterol”.
